Among the data in publication PMC10946451, “Engineering a Carboxyl Methyltransferase for the Formation of a Furan‐Based Bioplastic Precursor” (Chemsuschem, 2023) are Km values, retold here.

The target of the assay is T1, FtpM (WT FtpM) (Aspergillus fumigatus, UniProt Q4WZ45).
T1 construct: gene AFUA_3G15280; codon-optimised gene in pET-based golden gate vector, C-terminal His tag, expressed in E. coli, HisTrap purified; monomer and dimer modelled by AlphaFold 2
T1 sequence (Q4WZ45 1-282): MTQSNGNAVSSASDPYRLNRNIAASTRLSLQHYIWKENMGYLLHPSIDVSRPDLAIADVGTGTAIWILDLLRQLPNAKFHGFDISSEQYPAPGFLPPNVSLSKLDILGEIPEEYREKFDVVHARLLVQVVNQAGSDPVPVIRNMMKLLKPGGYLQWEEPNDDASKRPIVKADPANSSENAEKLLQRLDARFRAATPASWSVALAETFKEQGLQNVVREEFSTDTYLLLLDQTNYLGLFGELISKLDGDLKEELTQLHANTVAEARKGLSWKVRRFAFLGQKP
The assay is described as follows: steady-state kinetics of carboxyl methylation (Michaelis-Menten; previously reported method). The format is biochemical. To be noted: co-substrate SAM, kinetic assay conditions not printed (reactions: 50 mM MES pH 6.0, 25 °C).

As usually defined, the Km is the substrate concentration at which the rate is half of its maximum. For `O=C(O)c1ccc(C(=O)O)o1` [compound 2, 2,5-furandicarboxylic acid], for the setting “first methylation”, the Km turned out to be 520 µM.

In the case of `COC(=O)c1ccc(C(=O)O)o1` [compound 3, FMME], the Km (second methylation) worked out at 1400 µM.
